Assays:
HIV = assay: Inhibition of acute HIV infection, single cycle infectivity ("vertical") assay in HeLa P4-2 cells; assay type: cell-based; conditions: Human immunodeficiency virus 1, IIIB / NL43, HeLaP4-2
Procedure: An assay for measuring the inhibition of acute HIV infection with HeLa P4-2 cells in a single cycle infectivity assay (alternatively referred to as the “vertical” assay) was conducted in accordance with Joyce, J. G., et al., J. Biol. Chem. 2002, 277, 45811, Hazuda, D. J. et al., Science 2000, 287, 646, and Kimpton, J. et al, J. Virol. 1992, 66, 2232. Infectious virus was produced by transfecting 293T cells with HIV proviral DNA in which the integrase gene was derived from a IIIB isolate and the remainder of the HIV genome was derived from the NL4-3 isolate. […] For example, the compounds of Examples 1 to 4 were tested in this assay and found to have the IC50 values in Table C.

HIV-1 integrase = target: T1, HIV-1 integrase (Human immunodeficiency virus type 1 group M subtype B, UniProt P04585); assay: HIV integrase assay: strand transfer catalyzed by recombinant integrase; assay type: biochemical; conditions: inhibition of strand transfer activity
T1 construct: Strand Transfer Catalyzed by Recombinant Integrase
Procedure: Assays for the strand transfer activity of HIV-1 integrase were conducted in accordance with WO 02/30930 for recombinant integrase. […] For example, the compounds prepared in Examples 1 to 4 were tested in the integrase assay and found to have the IC50 values in Table B.
Further description on conducting the assay using preassembled complexes is found in Wolfe, A. L. et al., J. Virol. 1996, 70: 1424-1432, Hazuda et al., J. Virol. 1997, 71: 7005-7011; Hazuda et al., Drug Design and Discovery 1997, 15: 17-24; and Hazuda et al., Science 2000, 287: 646-650.

Compound | IC50 (HIV) [nM] | IC50 (HIV-1 integrase) [nM]
O=C1c2c(occ(O)c2=O)CCN1Cc1ccc(F)cc1 [Example 1, 6-(4-Fluorobenzyl)-3-hydroxy-7,8-dihydro-4H-pyrano[3,2-c]pyridine-4,5(6H)-dione] | 43000 | 3200
C=CCc1c(O)c(=O)c2c(n1C)CCN(Cc1ccc(F)cc1)C2=O [Example 2, 2-Allyl-6-(4-fluorobenzyl)-3-hydroxy-1-methyl-7,8-dihydro-1,6-naphthyridine-4,5(1H,6H)-dione] | 5000 | 100
C=CCCn1c2c(c(=O)c(O)c1C(C)C=C)C(=O)N(Cc1ccc(F)cc1)CC2 (centres unmarked) [Example 3, 1-But-3-en-1-yl-6-(4-fluorobenzyl)-3-hydroxy-2-(1-methylprop-2-en-1-yl)-7,8-dihydro-1,6-napthyridine-4,5(1H,6H)-dione] | 1000 | 100
CC1CCCCn2c3c(c(=O)c(O)c21)C(=O)N(Cc1ccc(F)cc1)CC3 (centres unmarked) [Example 4, 3-(4-Fluorobenzyl)-6-hydroxy-7-methyl-2,3,8,9,10,11-hexahydroazepino[1,2-a]-1,6-napthyridine-4,5(1H,7H)-dione] | 5000 | 120
